In patent publication US20250304559A1, “Ether-Linked Antiviral Compounds” (Pfizer Inc., priority 2021, published 2025):
Read-outs that look alike come from different tables or passages of the source.

Columns and labels:
[1] = test system: SARS-CoV-2 (USA_WA1/2020); assay: Antiviral Activity from SARS-CoV-2 Infection (cytopathic effect, Cell Titer-Glo); format: cell-based; settings: VeroE6 cells enriched for hACE2, MOI 0.002, 3-day incubation, tested alone or with P-gp inhibitor CP-100356 2 μM (table does not say which), read-out: Geometric Mean EC50
SARS-CoV-2 3CL protease = target: T1, SARS-CoV-2 3CL protease (Severe acute respiratory syndrome coronavirus 2, UniProt P0DTD1); assay: SARS-CoV-2 Coronavirus 3C Protease FRET Assay; format: biochemical; settings: Examples 14-78 and 114 (second head of Table 2); Morrison equation fit, 15 nM enzyme, 25 μM peptide substrate; read-out: Geometric Mean Ki (nM) IC50
T1 construct: measures the activity of full-length SARS-CoV-2 3CL protease

[2] = Severe acute respiratory syndrome coronavirus 2, Vero C1008, 72 h

| Compound | EC50 [1, 2] [nM] | Ki (SARS-CoV-2 3CL protease) [nM] | EC50 [1] [nM] |
| --- | --- | --- | --- |
| CCc1cc(OCC(=O)[C@H](C[C@@H]2CCNC2=O)NC(=O)[C@@H]2[C@@H]3[C@H](CN2C(=O)[C@@H](NC(=O)OC)C(C)(C)C)C3(C)C)n(C)n1 [Example 37, methyl {(2S)-1-[(1R,2S,5S)-2-({(2S)-4-[(3-ethyl-1-methyl-1H-pyrazol-5-yl)oxy]-3-oxo-1-[(3S)-2-oxopyrrolidin-3-yl]butan-2-yl}carbamoyl)-6,6-dimethyl-3-azabicyclo[3.1.0]hexan-3-yl]-3,3-dimethyl-1-oxobutan-2-yl}carbamate] | 900 | – | – |
| COC(=O)N[C@H](C(=O)N1C[C@H]2[C@@H]([C@H]1C(=O)N[C@@H](C[C@@H]1CCNC1=O)C(=O)COc1cccc(Cl)c1)C2(C)C)C(C)(C)C [Example 16, methyl {(2S)-1-[(1R,2S,5S)-2-({(2S)-4-(3-chlorophenoxy)-3-oxo-1-[(3S)-2-oxopyrrolidin-3-yl]butan-2-yl}carbamoyl)-6,6-dimethyl-3-azabicyclo[3.1.0]hexan-3-yl]-3,3-dimethyl-1-oxobutan-2-yl}carbamate] | 11.6 | 0.21 | – |
| CCc1cc(OCC(=O)[C@H](C[C@@H]2CCNC2=O)NC(=O)[C@@H]2[C@@H]3[C@H](CN2C(=O)[C@@H](NC(=O)C(F)(F)F)C(C)C)C3(C)C)n(C)n1 [Example 45, (1R,2S,5S)-N-{(2S)-4-[(3-ethyl-1-methyl-1H-pyrazol-5-yl)oxy]-3-oxo-1-[(3S)-2-oxopyrrolidin-3-yl]butan-2-yl}-6,6-dimethyl-3-[N-(trifluoroacetyl)-L-valyl]-3-azabicyclo[3.1.0]hexane-2-carboxamide] | 384 | – | – |
| CC(C)(C)[C@H](NS(=O)(=O)C(F)(F)F)C(=O)N1C[C@H]2[C@@H]([C@H]1C(=O)N[C@@H](C[C@@H]1CCNC1=O)C(=O)COc1cc(F)ccc1F)C2(C)C [Example 34, (1R,2S,5S)-N-{(2S)-4-(2,5-difluorophenoxy)-3-oxo-1-[(3S)-2-oxopyrrolidin-3-yl]butan-2-yl}-6,6-dimethyl-3-[3-methyl-N-(trifluoromethanesulfonyl)-L-valyl]-3-azabicyclo[3.1.0]hexane-2-carboxamide] | 86 | 6.95 | – |
| CC(C)[C@H](NS(=O)(=O)C(F)(F)F)C(=O)N1C[C@H]2[C@@H]([C@H]1C(=O)N[C@@H](C[C@@H]1CC(O)NC1=O)C(=O)COc1ccc(F)cc1F)C2(C)C (stereo partly drawn) [Example 54, (1R,2S,5S)-N-{(2S)-4-(2,4-difluorophenoxy)-1-[(3R)-5-hydroxy-2-oxopyrrolidin-3-yl]-3-oxobutan-2-yl}-6,6-dimethyl-3-[N-(trifluoromethanesulfonyl)-L-valyl]-3-azabicyclo[3.1.0]hexane-2-carboxamide] | 2250 | 11.3 | – |
| Cc1ccc2c(OCC(=O)[C@H](C[C@@H]3CCNC3=O)NC(=O)[C@@H]3[C@@H]4[C@H](CN3C(=O)[C@@H](NC(=O)C(F)(F)F)C(C)C)C4(C)C)noc2c1 [Example 51, (1R,2S,5S)-6,6-dimethyl-N-{(2S)-4-[(6-methyl-1,2-benzoxazol-3-yl)oxy]-3-oxo-1-[(3S)-2-oxopyrrolidin-3-yl]butan-2-yl}-3-[N-(trifluoroacetyl)-L-valyl]-3-azabicyclo[3.1.0]hexane-2-carboxamide] | 94.2 | 10.5 | – |
| Cc1nsnc1OCC(=O)[C@H](C[C@@H]1CCNC1=O)NC(=O)[C@@H]1[C@@H]2[C@H](CN1C(=O)[C@@H](NC(=O)C(F)(F)F)C(C)C)C2(C)C [Example 46, (1R,2S,5S)-6,6-dimethyl-N-{(2S)-4-[(4-methyl-1,2,5-thiadiazol-3-yl)oxy]-3-oxo-1-[(3S)-2-oxopyrrolidin-3-yl]butan-2-yl}-3-[N-(trifluoroacetyl)-L-valyl]-3-azabicyclo[3.1.0]hexane-2-carboxamide] | – | 8.21 | – |
| CC(C)(C)[C@H](NC(=O)C(F)(F)F)C(=O)N1C[C@H]2[C@@H]([C@H]1C(=O)N[C@@H](C[C@@H]1CCNC1=O)C(=O)COc1ccccc1)C2(C)C [Example 20, (1R,2S,5S)-6,6-dimethyl-3-[3-methyl-N-(trifluoroacetyl)-L-valyl]-N-{(2S)-3-oxo-1-[(3S)-2-oxopyrrolidin-3-yl]-4-phenoxybutan-2-yl}-3-azabicyclo[3.1.0]hexane-2-carboxamide] | 14.7 | – | – |
| CC(C)(C)[C@H](NS(=O)(=O)C(F)(F)F)C(=O)N1C[C@H]2[C@@H]([C@H]1C(=O)N[C@@H](C[C@@H]1CCNC1=O)C(=O)COc1ccc(F)c(F)c1)C2(C)C [Example 114, (1R,2S,5S)-N-{(2S)-4-(3,4-difluorophenoxy)-3-oxo-1-[(3S)-2-oxopyrrolidin-3-yl]butan-2-yl}-6,6-dimethyl-3-[3-methyl-N-(trifluoromethanesulfonyl)-L-valyl]-3-azabicyclo[3.1.0]hexane-2-carboxamide] | – | 2.53 | – |
| CC(C)[C@H](NC(=O)C(F)(F)F)C(=O)N1C[C@H]2[C@@H]([C@H]1C(=O)N[C@@H](C[C@@H]1CCNC1=O)C(=O)COc1ccc(F)nc1)C2(C)C [Example 31, (1R,2S,5S)-N-{(2S)-4-[(6-fluoropyridin-3-yl)oxy]-3-oxo-1-[(3S)-2-oxopyrrolidin-3-yl]butan-2-yl}-6,6-dimethyl-3-[N-(trifluoroacetyl)-L-valyl]-3-azabicyclo[3.1.0]hexane-2-carboxamide] | 167 | – | – |
| Cc1ccc(OCC(=O)[C@H](C[C@@H]2CCNC2=O)NC(=O)[C@@H]2[C@@H]3[C@H](CN2C(=O)[C@@H](NC(=O)C(F)(F)F)C(C)(C)C)C3(C)C)cn1 [Example 19, (1R,2S,5S)-6,6-dimethyl-N-{(2S)-4-[(6-methylpyridin-3-yl)oxy]-3-oxo-1-[(3S)-2-oxopyrrolidin-3-yl]butan-2-yl}-3-[3-methyl-N-(trifluoroacetyl)-L-valyl]-3-azabicyclo[3.1.0]hexane-2-carboxamide] | 37.2 | – | – |
| COCC(=O)[C@H](C[C@@H]1CCNC1=O)NC(=O)[C@@H]1CC(C(C)(C)C)CCN1C(=O)[C@@H](NS(=O)(=O)C(F)(F)F)C(C)C (single isomer, unassigned) [Example 15, (2R*,4S*)-4-tert-butyl-N-{(2S)-4-methoxy-3-oxo-1-[(3S)-2-oxopyrrolidin-3-yl]butan-2-yl}-1-[N-(trifluoromethanesulfonyl)-L-valyl]piperidine-2-carboxamide, DIAST-1] | 272 | – | – |
| CC(C)[C@H](NC(=O)C(F)(F)F)C(=O)N1C[C@H]2[C@@H]([C@H]1C(=O)N[C@@H](C[C@@H]1CCNC1=O)C(=O)COc1nnc(C(C)(C)C)n1C)C2(C)C [Example 78, (1R,2S,5S)-N-{(2S)-4-[(5-tert-butyl-4-methyl-4H-1,2,4-triazol-3-yl)oxy]-3-oxo-1-[(3S)-2-oxopyrrolidin-3-yl]butan-2-yl}-6,6-dimethyl-3-[N-(trifluoroacetyl)-L-valyl]-3-azabicyclo[3.1.0]hexane-2-carboxamide] | 7370 | – | – |
| CC(C)[C@H](NS(C)(=O)=O)C(=O)N1CCC(C(F)(F)F)C[C@H]1C(=O)N[C@@H](C[C@@H]1CCNC1=O)C(=O)COc1ccc(F)cc1F (single isomer, unassigned) [Example 71, (2R*,4S*)-N-{(2S)-4-(2,4-difluorophenoxy)-3-oxo-1-[(3S)-2-oxopyrrolidin-3-yl]butan-2-yl}-1-[N-(methanesulfonyl)-L-valyl]-4-(trifluoromethyl)piperidine-2-carboxamide, DIAST-1] | – | – | 8310 |
| COC(=O)N[C@H](C(=O)N1C[C@H]2[C@@H]([C@H]1C(=O)N[C@@H](C[C@@H]1CCNC1=O)C(=O)COc1cc(C(F)(F)F)nn1C)C2(C)C)C(C)C [Example 36, methyl {(2S)-1-[(1R,2S,5S)-6,6-dimethyl-2-({(2S)-4-{[1-methyl-3-(trifluoromethyl)-1H-pyrazol-5-yl]oxy}-3-oxo-1-[(3S)-2-oxopyrrolidin-3-yl]butan-2-yl}carbamoyl)-3-azabicyclo[3.1.0]hexan-3-yl]-3-methyl-1-oxobutan-2-yl}carbamate] | 256 | – | – |
| CCn1nc(C)cc1OCC(=O)[C@H](C[C@@H]1CCNC1=O)NC(=O)[C@@H]1[C@@H]2[C@H](CN1C(=O)[C@@H](NC(=O)C(F)(F)F)C(C)C)C2(C)C [Example 43, (1R,2S,5S)-N-{(2S)-4-[(1-ethyl-3-methyl-1H-pyrazol-5-yl)oxy]-3-oxo-1-[(3S)-2-oxopyrrolidin-3-yl]butan-2-yl}-6,6-dimethyl-3-[N-(trifluoroacetyl)-L-valyl]-3-azabicyclo[3.1.0]hexane-2-carboxamide] | 642 | – | – |
| CCc1cc(OCC(=O)[C@H](C[C@@H]2CCNC2=O)NC(=O)[C@@H]2[C@@H]3[C@H](CN2C(=O)[C@@H](NC(=O)C(F)(F)F)C(C)(C)C)C3(C)C)n(C)n1 [Example 26, (1R,2S,5S)-N-{(2S)-4-[(3-ethyl-1-methyl-1H-pyrazol-5-yl)oxy]-3-oxo-1-[(3S)-2-oxopyrrolidin-3-yl]butan-2-yl}-6,6-dimethyl-3-[3-methyl-N-(trifluoroacetyl)-L-valyl]-3-azabicyclo[3.1.0]hexane-2-carboxamide] | 171 | – | – |
| Cc1ccc(OCC(=O)[C@H](C[C@@H]2CCNC2=O)NC(=O)[C@@H]2[C@@H]3[C@H](CN2C(=O)[C@@H](NC(=O)C(F)(F)F)C(C)C)C3(C)C)cn1 [Example 18, (1R,2S,5S)-6,6-dimethyl-N-{(2S)-4-[(6-methylpyridin-3-yl)oxy]-3-oxo-1-[(3S)-2-oxopyrrolidin-3-yl]butan-2-yl}-3-[N-(trifluoroacetyl)-L-valyl]-3-azabicyclo[3.1.0]hexane-2-carboxamide] | 114 | – | – |
| CC(C)[C@H](NS(C)(=O)=O)C(=O)N1CCC(C(F)(F)F)C[C@H]1C(=O)N[C@@H](C[C@@H]1CCNC1=O)C(=O)COc1ccc(F)cc1F (single isomer, unassigned) [Example 41, (2R*,4S*)-N-{(2S)-4-(2,4-difluorophenoxy)-3-oxo-1-[(3S)-2-oxopyrrolidin-3-yl]butan-2-yl}-1-[N-(methanesulfonyl)-L-valyl]-4-(trifluoromethyl)piperidine-2-carboxamide, DIAST-2] | – | – | 224 |
